Test results as given in article PMC5933457, “Probing biological activity through structural modelling of ligand-receptor interactions of 2,4-disubstituted thiazole retinoids” (Bioorganic & Medicinal Chemistry, 2018).

Columns and labels:
TERA2.cl.SP12 stem cells = assay: Real-time PCR for neuronal markers NeuroD1 and PAX6; assay type: cell-based, human; conditions: 10 μM, Fig. 7B; for induction of PAX6 expression, rank order: up to 7 days
Method: Second, NeuroD1 and PAX6 are retinoid-induced transcription factors involved in regulating neuronal differentiation,[49], [50] and are expressed in neurons derived from TERA2.cl.SP12 stem cells.
(§1) Real time PCR was carried out immediately after treatment on both cell line lysates with 0.25% trypsin–EDTA. TERA-2.cl.SP12 cells were seeded at a density of 1 × 10^6 cells per 25 cm^2 flask, 12–24 h before treatment. […] SH-SY5Y cells were seeded at a density of 1 × 10^6 cells per 25 cm^2 flask, 12–24 h before treatment. […] Commercial RNA extraction kits (Qiagen) and reverse transcription (Applied Biosystems) kits were purchased and procedures used according to the manufacturer instructions. Real time PCR was performed using the TaqMan® Universal PCR Master Mix (Life technologies) and TaqMan® gene expression system (Applied Biosystems) based on probe sets to the specific genes to be analysed. Genecodes used are as follows: RARβ (Hs00233407_m1), CYP26-A1 (Hs00175627_m1), RARα (Hs00940448_g1), RARγ (Hs01559234_m1), PAX-6 (Hs01088112_m1), NeuroD1 (Hs01922995_s1). GADPH (Hs02758991_g1) and ACTB (Hs99999903_m1) were used as internal control genes for TERA-2.cl.SP12 and SH-SY5Y, respectively.

RARβ = conditions: RARβ2 isoform; cited from earlier work
[1] = system: SH-SY5Y human neuroblastoma cells; assay: Retinoid-induced gene expression (RARα, RARβ, RARγ, CYP26A1) by real-time PCR; assay type: cell-based; conditions: for induction of RARα and RARγ expression: 10 μM retinoid, over a 12 h period, Fig. 8A; for induction of RARβ expression, rank order / induction of CYP26A1 expression, rank order: dose-response 1 nM to 1 μM, 8 h treatment, Fig. 8B; for induction of RARβ expression, rank order: all doses; for induction of CYP26A1 expression, rank order: doses <1 μM
Method: As an additional assay of biological activity, short-term changes in expression of four genes in SH-SY5Y cells was employed; a neuroblastoma-derived lineage that undergoes neuronal differentiation in response to retinoid treatment. The four genes assayed, RARα, RARβ, RARγ and CYP26A, have RAREs associated with their promoters and may be directly regulated by retinoids.[51], [52]
as §1

| Compound | NeuroD1 mRNA expression, rank order (TERA2.cl.SP12 stem cells; after 5 days) | induction of PAX6 expression, rank order (TERA2.cl.SP12 stem cells) | RAR-type selectivity (RARβ) | time-course of RARβ and CYP26A1 induction ([1]; 10 μM retinoid treatment) | induction of RARα and RARγ expression [1] | induction of RARβ expression, rank order [1] | induction of CYP26A1 expression, rank order [1] | NeuroD1 mRNA expression, rank order (TERA2.cl.SP12 stem cells; after 7 days) |
| --- | --- | --- | --- | --- | --- | --- | --- | --- |
| CCOCCOc1nc(-c2ccc(C(=O)O)cc2)sc1C [GZ18] | GZ25 > GZ18 > ATRA | GZ25 ≫ ATRA > GZ18 | RARβ2-specific retinoid | less active in comparison to either GZ25 or ATRA | lower levels of induction | GZ25 ≫ ATRA > GZ18 | GZ25 > GZ18 > ATRA | – |
| Cc1sc(-c2ccc(C(=O)O)cc2)nc1-c1ccc2c(c1)C(C)(C)CCC2(C)C [GZ25] | GZ25 > GZ18 > ATRA | GZ25 ≫ ATRA > GZ18 | – | – | lower levels of induction | GZ25 ≫ ATRA > GZ18 | GZ25 > GZ18 > ATRA | ATRA > GZ25 |
